Results taken from patent US12263202B2, “Method of treating melanocortin-4 receptor pathway-associated disorders” (CHARITÉ—UNIVERSITÄTSMEDIZIN BERLIN, priority 2015, dated 2025).
Entries after “also recorded” stand apart in the source; their conditions may differ.

Experiments:
[1] = system: POMC deficient patient; test: Phase 2 open label study of setmelanotide in an adult POMC deficient patient with severe obesity and hyperphagia; type: in vivo, human
Description: See, e.g., Chen et al. J. Clin. Endocrinol. Metab. 2015; 100:1639-45. The study was an investigator initiated, open label, phase 2, non-randomized proof of concept study (EudraCT No. 2014-002392-28; Clinical Trials Identifier No. NCT02507492) with three parts: pre-study evaluation, main study (about 13 weeks) and after a short interval off drug, a long-term extension phase.
In the pre-study period, baseline examinations were performed, including analysis of metabolic parameters, including OGTT, GnRH test, fasting blood glucose, Leptin measurements as well as bioelectrical impedance analysis (BIA, according standard protocols; Data-in, Nutriguard-MS), indirect calorimetry (CareFusion, VMAX® Encore system), heart rate and blood pressure monitoring (after the first injection and after each dosage escalation blood pressure was measured regularly over 12 hours; in addition, blood was measured at home 3 times daily) as well as a dermatological and psychological examination. All parameters were in the normal range with the exception of elevated fasting insulin reflecting insulin resistance. These measurements were repeated after 13 and 26 weeks of treatment. Baseline examination also included physical examination, e.g., measurement of height and body-weight. Setmelanotide treatment was started at a dose of 0.25 mg subcutaneously (s.c.) once daily. The dose escalated every 1-2 weeks after careful assessment of safety and weight loss. After the first injection and after each dosage escalation, blood pressure was measured regularly over 12 hours. In addition, blood was measured 3 times daily. Setmelanotide injections were given once a day.
After about 90 days of treatment (main study), assessments were repeated, including assessments of metabolic parameters, e.g., blood tests, skin examination, and psychological evaluation. Setmelanotide treatment was ended, and a rapid and large weight gain off-treatment was observed. Subsequently, setmelanotide treatment was continued for another 3 months (extension phase) along with continued assessments (of metabolic parameters). The hunger score was evaluated using a Likert hunger scale from 0 to 10 points (0=no hunger; 10=severe hunger). See, e.g., Sibilia. Psychologicol Topics 19 (2010), 2, 341-354.
Bioelectric Impedance Analysis (BIA) and indirect calorimetric analysis was performed according standard protocols, e.g., as described in Barak et al. JPEN J. Parenter. Enteral Nutr. 27.1(2003):43-6; and Compher et al. J. Am. Diet Assoc.
Statistical analysis: The values of systolic and diastolic blood pressure and heart rate were analyzed with a […].

[2] = system: Magel2-null mice; test: Food intake and energy expenditure in Magel2-null mice (mouse model of PWS); type: in vivo
Description: (§1) Experiments were performed to determine the effect of a MC4R agonist, setmelanotide, on Magel2-null mice. Setmelanotide was evaluated in wild type and Magel2-null mice. Adult mice (N=6 per group) were acclimated to metabolic chambers, and food intake and energy expenditure (kcal/h) were measured over time. Mice were 8 weeks old. […] Vehicle and drug (setmelanotide) were administered intraperitoneally (i.p.) (n=6 for each treatment). A 0.1 mg/kg dose of setmelanotide was injected i.p. before the start of the dark cycle in the mice.
(§2) Food intake (cumulative in grams (g)) through 3 hours post dose and overnight cumulative food intake were assessed. Energy expenditure was also measured after dosing. Post-setmelanotide treatment data were compared to the data from post-vehicle injections in the same groups of mice. Statistical analysis was by two-way ANOVA followed by Bonferroni post-testing.

[3] = system: wildtype mice; test: Food intake in wild type mice (comparison to Magel2-null); type: in vivo; conditions: 0.1 mg/kg i.p.
Description: as §1, §2

[4] = system: wild-type obese human patients; test: Weight loss in wild-type obese human patients; type: in vivo; conditions: 0.01 mg/kg or 0.015 mg/kg twice daily (BID); after 2 or 4 weeks; placebo-subtracted
Description: The effect of MC4R agonist setmelanotide on wild-type obese human patients was assessed. The patients were treated with placebo or setmelanotide twice daily (BID) at 0.01 mg/kg or 0.015 mg/kg. There were 9 patients in each treatment group (6 with setmelanotide and 3 with placebo).
The amount of weight loss was determined after 2 weeks or after 4 weeks of treatment. […] The weight loss among the wild-type obese patients was about 0.6 to about 0.9 kg per week.

[5] = system: db/db mice; test: Food intake over four hours in db/db mice (leptin receptor deficient); type: in vivo
Description: (§3) To determine this, wild-type and db/db mice were exposed to vehicle or varying concentrations of setmelanotide (0.0554 mpk; 0.137 mpk, 0.344 mpk, or 1.37 mpk), and their food intake was measured over four hours.

[6] = system: wild-type mice; test: Food intake over four hours in wild-type mice; type: in vivo
Description: as §3

[7] = cited from earlier work
[8] = after 26 weeks of treatment, listed as MC4R agonist
[9] = after a 13-week treatment vs baseline
[10] = bioelectrical impedance analysis
[11] = off drug after 13 weeks of treatment (three weeks off drug)
[12] = higher doses (0.137 mpk, 0.344 mpk, and 1.37 mpk), vs vehicle-treated mice

CC(=O)N[C@@H](CCCNC(=N)N)C(=O)N[C@H]1CSSC[C@@H](C(N)=O)NC(=O)[C@H](Cc2c[nH]c3ccccc23)NC(=O)[C@H](CCCNC(=N)N)NC(=O)[C@@H](Cc2ccccc2)NC(=O)[C@H](Cc2cnc[nH]2)NC(=O)[C@@H](C)NC1=O [setmelanotide, Ac-Arg-c(Cys-D-Ala-His-D-Phe-Arg-Trp-Cys)-NH2]
Likert hunger scale score ([1]; 1 mg s.c. once daily, scale 0 to 10 (0=no hunger), baseline 9): 5 points
rate of weight loss ([1]; 1.5 mg dose, first treatment phase): 2-3 kg per week
LDL ([1]; after 26 weeks of treatment): further reduced
total cholesterol ([1]; after 26 weeks of treatment): further reduced
total loss of body weight ([1]; after 26 weeks of treatment): 35.9 kg
total loss of body weight, % of initial body weight ([1]; after 26 weeks of treatment): 23.2%
triglycerides ([1]; after 26 weeks of treatment): further reduced
total loss of body weight [1, 8]: about 36 kg
total loss of body weight, % of initial body weight [1, 8]: about 23%
HDL cholesterol [1, 9]: did not change
LDL cholesterol [1, 9]: reduced
total cholesterol [1, 9]: reduced
triglycerides [1, 9]: did not change
total weight loss, % of initial body weight ([1]; after the first 13 weeks of treatment): 16.7%
total weight loss ([1]; after the first 13 weeks of treatment, baseline 155 kg): 25.8 kg
BMI ([1]; after the first 13 weeks, baseline 49.8): 41.5 kg/m2
end body weight ([1]; after the first 13 weeks, baseline 155 kg): 129.2 kg
BMI SDS ([1]; after the first 13 weeks, baseline +4.52): +3.86
quality of life ([1]; after the initiation of treatment): improved dramatically
loss of body weight ([1]; at 86 weeks of treatment): 60.5 kg
composition of the reduction of body weight [1, 10]: mainly due to a loss of body-fat mass
lean body mass [1, 10]: not greatly altered
resting energy expenditure (REE)/kg lean body mass ([1]; despite severe weight loss): stayed relatively stable
blood pressure ([1]; during all steps of dose escalation): no increase
diastolic BP ([1]; during the study): significant decreases
heart rate (HR) ([1]; during the study): significant decreases
systolic BP ([1]; during the study): significant decreases
adverse event reported by the patient ([1]; human, in vivo): infrequent dry mouth
safety laboratories ([1]; human, in vivo): no changes in safety laboratories of clinical concern
tolerability of treatment ([1]; human, in vivo): well tolerated
changes in hunger ([1]; initially, with low dosage): only little changes
weight loss ([1]; initially, with low dosage): moderate
Likert hunger score after treatment was stopped [1, 11]: 7 points
weight regained after treatment was stopped [1, 11]: 4.8 kg
blood glucose values (fasting and after glucose challenge) ([1]; oral glucose tolerance test, during the study): remained always in the normal range; also recorded: relatively stable
weight loss per week ([1]; overall, over the course of 26 weeks of treatment): 2-2.5 kg per week
rate of weight loss ([1]; second treatment phase (1 mg for 4 weeks and 1.5 mg thereafter)): 1-2 kg per week
elevated insulin levels / insulin resistance (insulin sensitivity) ([1]; under setmelanotide treatment): improved significantly
serum leptin concentrations ([1]; with loss of body-fat mass): significant decrease
increase of energy expenditure ([2]; 0.1 mg/kg i.p., 3 hours post-dosing, vs vehicle-dosed Magel2-null mice): 11%
decrease of spontaneous food intake ([2]; 0.1 mg/kg i.p., over the first 3 hours, P<0.05): ~75%
food intake suppression, duration ([2]; 0.1 mg/kg i.p., overnight): persisted throughout the dark cycle
cumulative food intake ([2]; 0.1 mg/kg, P<0.05): statistically significant decrease
sensitivity compared with wildtype mice ([2]; 0.1 mg/kg, food intake): much more sensitive than wildtype mice
food intake [3]: retained normal levels of food intake
weight loss [4]: 0.6-0.9 kg per week
suppression of food intake ([5]; 0.0544 mpk dose, end of the 4 hour time period): about 80%
suppression of food intake compared with wildtype mice ([5]; all concentrations): more profound suppression of foodintake than wildtype mice
food intake [5, 12]: significantly decreased food intake
food intake vs vehicle treated mice ([6]; 0.0544 mpk dose, 4 hour timepoint): identical food intake
food intake ([6]; 0.0544 mpk dose, at 1 and 2 hours): Decreased food intake
food intake [6, 12]: significantly decreased food intake
effect on blood pressure ([7]; clinical trials (Chen et al. 2015)): not been shown to adversely affect blood pressure
effects on sexual activity ([7]; in vivo): only infrequent
signs of increased blood pressure ([7]; in vivo): little, if any
tolerability ([7]; in vivo): generally well-tolerated
